Read-outs that look alike come from different tables or passages of the source.
Experiments:
Type in all cases: in vivo
[1] = test system: sedge, umbrella (small-flower umbrella sedge, Cyperus difformis); experiment: Test B flooded paddy test; settings: Cyperus difformis, Flood, 250 g ai/ha
Procedure, shortened: (§1)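 Percent control, visually estimated after 13–15 d in the greenhouse on a 0–100 basis, compares treated pots with untreated ones; compound was put into paddy water 3 cm above the soil when plants had two leaves.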

[2] = test system: rice (Oryra sativa); experiment: Test B flooded paddy test; settings: Oryza sativa, Flood, 250 g ai/ha
Procedure, shortened: as §1

[3] = test system: ducksalad (Heteranthera limosa); experiment: Test B flooded paddy test; settings: Heteranthera limosa, Flood, 250 g ai/ha
Procedure, shortened: as §1

[4] = test system: barnyardgrass (Echinochloa crus-galli); experiment: Test B flooded paddy test; settings: Echinochloa crus-galli, Flood, 250 g ai/ha
Procedure, shortened: as §1

[5] = test system: corn (Zea mays); experiment: Test A postemergence; settings: Zea mays, post-emergence, 240 h
Procedure, shortened: (§2)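 Visual injury, scored on a 0–100 scale relative to untreated controls, was recorded about 10 d after application. Treatments were a preemergence soil spray over planted seeds or a postemergence spray on plants at the one- to two-leaf stage, 2 to 10 cm tall, all in loam soil–sand blend in the greenhouse.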

[6] = test system: giant foxtail (Setaria faberii); experiment: Test A postemergence; settings: Setaria faberi, post-emergence, 240 h; for pest or weed control at 125 g/ha: 125 g ai/ha
Procedure, shortened: as §2

[7] = test system: ryegrass, Italian (Italian ryegrass, Lolium multiflorum); experiment: Test A postemergence; settings: Lolium multiflorum, post-emergence, 240 h; for pest or weed control at 125 g/ha: 125 g ai/ha
Procedure, shortened: as §2

[8] = test system: Galium (catchweed bedstraw, Galium aparine); experiment: Test A postemergence; settings: Galium, post-emergence, 240 h; for pest or weed control at 125 g/ha: 125 g ai/ha
Procedure, shortened: as §2

[9] = test system: ragweed (common ragweed, Ambrosia elatior); experiment: Test A postemergence; settings: Ambrosia artemisiifolia, post-emergence, 240 h; for pest or weed control at 125 g/ha: 125 g ai/ha
Procedure, shortened: as §2

[10] = test system: Kochia (Kochia scoparia); experiment: Test A postemergence; settings: Bassia scoparia, post-emergence, 240 h; for pest or weed control at 125 g/ha: 125 g ai/ha
Procedure, shortened: as §2

[11] = test system: blackgrass (Alopecurus myosuroides); experiment: Test A postemergence; settings: Alopecurus myosuroides, post-emergence, 240 h; for pest or weed control at 125 g/ha: 125 g ai/ha
Procedure, shortened: as §2

[12] = test system: pigweed (Amaranthus retroflexus); experiment: Test A postemergence; settings: Amaranthus retroflexus, post-emergence, 240 h; for pest or weed control at 125 g/ha: 125 g ai/ha
Procedure, shortened: as §2

[13] = test system: barnyardgrass (Echinochloa crus-galli); experiment: Test A postemergence; settings: Echinochloa crus-galli, post-emergence, 240 h; for pest or weed control at 125 g/ha: 125 g ai/ha
Procedure, shortened: as §2

[14] = test system: wheat (Triticum aestivum); experiment: Test A postemergence; settings: Triticum aestivum, post-emergence, 240 h, Postemergence
Procedure, shortened: as §2

SMILES: Cc1cc([C@H]2CN(C)C(=O)[C@@H]2C(=O)Nc2cccc(F)c2F)cc(C)c1C [Compound 796]
- pest or weed control at 250 g/ha ([1]; scale of 0 to 100 where 0 is no effect and 100 is complete control, read-out: Sedge, Umbrella plant response rating): 0%
- pest or weed control at 250 g/ha ([2]; scale of 0 to 100 where 0 is no effect and 100 is complete control, read-out: Rice plant response rating): 40%
- pest or weed control at 250 g/ha ([3]; scale of 0 to 100 where 0 is no effect and 100 is complete control, read-out: Ducksalad plant response rating): 90%
- pest or weed control at 250 g/ha ([4]; scale of 0 to 100 where 0 is no effect and 100 is complete control, read-out: Barnyardgrass plant response rating): 70%
- Corn plant response rating (crop injury, 0 = no effect, 100 = complete kill) at 125 g/ha ([5]; 125 g ai/ha, postemergence, visual injury after approximately 10 d, 0 to 100 scale (0 no effect, 100 complete control)): 90%
- Corn plant response rating (crop injury, 0 = no effect, 100 = complete kill) at 31 g/ha ([5]; Postemergence, 31 g ai/ha, visual injury after approx. 10 d, 0 to 100 scale, 0 no effect, 100 complete control): 70%
- pest or weed control at 125 g/ha ([6]; postemergence, visual injury after approximately 10 d, 0 to 100 scale (0 no effect, 100 complete control), read-out: Plant response rating, Foxtail, Giant): 90%
- pest or weed control at 31 g/ha ([6]; Postemergence, 31 g ai/ha, visual injury after approx. 10 d, 0 to 100 scale, 0 no effect, 100 complete control, read-out: Plant response rating, Foxtail, Giant): 80%
- pest or weed control at 125 g/ha ([7]; postemergence, visual injury after approximately 10 d, 0 to 100 scale (0 no effect, 100 complete control), read-out: Plant response rating, Ryegrass, Italian): 40%
- pest or weed control at 31 g/ha ([7]; Postemergence, 31 g ai/ha, visual injury after approx. 10 d, 0 to 100 scale, 0 no effect, 100 complete control, read-out: Plant response rating, Ryegrass, Italian): 0%
- pest or weed control at 125 g/ha ([8]; postemergence, visual injury after approximately 10 d, 0 to 100 scale (0 no effect, 100 complete control), read-out: Plant response rating, Galium): 40%
- pest or weed control at 31 g/ha ([8]; Postemergence, 31 g ai/ha, visual injury after approx. 10 d, 0 to 100 scale, 0 no effect, 100 complete control, read-out: Plant response rating, Galium): 0%
- pest or weed control at 125 g/ha ([9]; postemergence, visual injury after approximately 10 d, 0 to 100 scale (0 no effect, 100 complete control), read-out: Plant response rating, Ragweed): 0%
- pest or weed control at 31 g/ha ([9]; Postemergence, 31 g ai/ha, visual injury after approx. 10 d, 0 to 100 scale, 0 no effect, 100 complete control, read-out: Plant response rating, Ragweed): 0%
- pest or weed control at 125 g/ha ([10]; postemergence, visual injury after approximately 10 d, 0 to 100 scale (0 no effect, 100 complete control), read-out: Plant response rating, Kochia): 0%
- pest or weed control at 31 g/ha ([10]; Postemergence, 31 g ai/ha, visual injury after approx. 10 d, 0 to 100 scale, 0 no effect, 100 complete control, read-out: Plant response rating, Kochia): 0%
- pest or weed control at 125 g/ha ([11]; postemergence, visual injury after approximately 10 d, 0 to 100 scale (0 no effect, 100 complete control), read-out: Plant response rating, Blackgrass): 30%
- pest or weed control at 31 g/ha ([11]; Postemergence, 31 g ai/ha, visual injury after approx. 10 d, 0 to 100 scale, 0 no effect, 100 complete control, read-out: Plant response rating, Blackgrass): 0%
- pest or weed control at 125 g/ha ([12]; postemergence, visual injury after approximately 10 d, 0 to 100 scale (0 no effect, 100 complete control), read-out: Plant response rating, Pigweed): 20%
- pest or weed control at 31 g/ha ([12]; Postemergence, 31 g ai/ha, visual injury after approx. 10 d, 0 to 100 scale, 0 no effect, 100 complete control, read-out: Plant response rating, Pigweed): 0%
- pest or weed control at 125 g/ha ([13]; postemergence, visual injury after approximately 10 d, 0 to 100 scale (0 no effect, 100 complete control), read-out: Plant response rating, Barnyardgrass): 90%
- pest or weed control at 31 g/ha ([13]; Postemergence, 31 g ai/ha, visual injury after approx. 10 d, 0 to 100 scale, 0 no effect, 100 complete control, read-out: Plant response rating, Barnyardgrass): 80%
- plant injury at 31 g/ha ([14]; 31 g ai/ha, visual injury after approx. 10 d, 0 to 100 scale, 0 no effect, 100 complete control, read-out: Plant response rating, Wheat): 30%

SMILES: CN1C[C@H](c2ccc(C(F)F)cc2)[C@@H](C(=O)Nc2cccc(F)c2F)C1=O [Compound 1383]
- pest or weed control at 250 g/ha ([1]; 360 h, visually evaluated after 13 to 15 d, read-out: Plant response rating, Sedge, Umbrella (0 to 100 scale where 0 is no effect and 100 is complete control)): 0%
- pest or weed control at 250 g/ha ([2]; 360 h, visually evaluated after 13 to 15 d, read-out: Plant response rating, Rice (0 to 100 scale where 0 is no effect and 100 is complete control)): 25%
- pest or weed control at 250 g/ha ([3]; 360 h, visually evaluated after 13 to 15 d, read-out: Plant response rating, Ducksalad (0 to 100 scale where 0 is no effect and 100 is complete control)): 100%
- pest or weed control at 250 g/ha ([4]; 360 h, visually evaluated after 13 to 15 d, read-out: Plant response rating, Barnyardgrass (0 to 100 scale where 0 is no effect and 100 is complete control)): 65%
- plant injury at 125 g/ha ([5]; 125 g ai/ha, Postemergence, visual rating about 10 d after treatment, read-out: Corn plant response rating (0 to 100 scale)): 80%
- Corn plant response rating (crop injury, 0 = no effect, 100 = complete kill) at 500 g/ha ([5]; Postemergence, 500 g ai/ha, visual injury, 0 to 100 scale (0 no effect, 100 complete control), approx. 10 d): 90%
- pest or weed control at 125 g/ha ([6]; Postemergence, visual rating about 10 d after treatment, read-out: Foxtail, Giant plant response rating (0 to 100 scale)): 90%
- pest or weed control at 500 g/ha ([6]; Postemergence, 500 g ai/ha, visual injury, 0 to 100 scale (0 no effect, 100 complete control), approx. 10 d, read-out: Plant response rating, Foxtail, Giant): 90%
- pest or weed control at 125 g/ha ([7]; Postemergence, visual rating about 10 d after treatment, read-out: Ryegrass, Italian plant response rating (0 to 100 scale)): 40%
- pest or weed control at 500 g/ha ([7]; Postemergence, 500 g ai/ha, visual injury, 0 to 100 scale (0 no effect, 100 complete control), approx. 10 d, read-out: Plant response rating, Ryegrass, Italian): 50%
- pest or weed control at 125 g/ha ([8]; Postemergence, visual rating about 10 d after treatment, read-out: Galium plant response rating (0 to 100 scale)): 60%
- pest or weed control at 500 g/ha ([8]; Postemergence, 500 g ai/ha, visual injury, 0 to 100 scale (0 no effect, 100 complete control), approx. 10 d, read-out: Plant response rating, Galium): 60%
- pest or weed control at 125 g/ha ([9]; Postemergence, visual rating about 10 d after treatment, read-out: Ragweed plant response rating (0 to 100 scale)): 50%
- pest or weed control at 500 g/ha ([9]; Postemergence, 500 g ai/ha, visual injury, 0 to 100 scale (0 no effect, 100 complete control), approx. 10 d, read-out: Plant response rating, Ragweed): 60%
- pest or weed control at 125 g/ha ([10]; Postemergence, visual rating about 10 d after treatment, read-out: Kochia plant response rating (0 to 100 scale)): 70%
- pest or weed control at 500 g/ha ([10]; Postemergence, 500 g ai/ha, visual injury, 0 to 100 scale (0 no effect, 100 complete control), approx. 10 d, read-out: Plant response rating, Kochia): 70%
- pest or weed control at 125 g/ha ([11]; Postemergence, visual rating about 10 d after treatment, read-out: Blackgrass plant response rating (0 to 100 scale)): 40%
- pest or weed control at 500 g/ha ([11]; Postemergence, 500 g ai/ha, visual injury, 0 to 100 scale (0 no effect, 100 complete control), approx. 10 d, read-out: Plant response rating, Blackgrass): 50%
- pest or weed control at 125 g/ha ([12]; Postemergence, visual rating about 10 d after treatment, read-out: Pigweed plant response rating (0 to 100 scale)): 40%
- pest or weed control at 500 g/ha ([12]; Postemergence, 500 g ai/ha, visual injury, 0 to 100 scale (0 no effect, 100 complete control), approx. 10 d, read-out: Plant response rating, Pigweed): 70%
- pest or weed control at 125 g/ha ([13]; Postemergence, visual rating about 10 d after treatment, read-out: Barnyardgrass plant response rating (0 to 100 scale, 0 no effect, 100 complete control)): 100%
- pest or weed control at 500 g/ha ([13]; Postemergence, 500 g ai/ha, visual injury, 0 to 100 scale (0 no effect, 100 complete control), approx. 10 d, read-out: Plant response rating, Barnyardgrass): 100%
- plant injury at 125 g/ha ([14]; 125 g ai/ha, visual rating about 10 d after treatment, read-out: Wheat plant response rating (0 to 100 scale)): 60%
- plant injury at 500 g/ha ([14]; 500 g ai/ha, visual injury, 0 to 100 scale (0 no effect, 100 complete control), approx. 10 d, read-out: Plant response rating, Wheat): 80%
